Laboratory results: paper PMC8271706, “Structural Characterization and Assessment of Anti-Inflammatory and Anti-Tyrosinase Activities of Polyphenols from Melastoma normale” (Molecules, 2021)

What was measured:
mushroom tyrosinase = test: Anti-tyrosinase activity, L-DOPA as substrate; assay type: biochemical; conditions: for IC50: IC50 ± SD, pH 6.8, read-out: Tyrosinase inhibitory activity IC50
Description: All compounds were investigated for potential tyrosinase inhibitory activity.
The anti-tyrosinase activities of the isolates were investigated according to the procedure described by Aoki et al. with slight modifications. […] Solution of L-DOPA at 5.0 mM, mushroom tyrosinase at 100 U/mL, as well as samples at different concentrations were prepared in phosphate buffer (pH 6.8). 20 µL of the sample solution and 10 µL of mushroom tyrosinase solution were mixed and pre-incubated at 37 °C for 10 min, then 40 µL of L-DOPA solution was added and incubated at 37 °C for 5 min. The absorbance was measured at 475 nm using the Spark 10M multimode microplate reader (Tecan Trading AG, Zurich, Switzerland). All assays were repeated three times and each time in triplicate. The percent inhibition of tyrosinase activity was calculated using the following formula:Tyrosinase inhibition (%) = [1 − (T − T0)/(C − C0)] × 100 where T represents the absorbance with sample and tyrosinase; T0 represents the absorbance with sample but no tyrosinase; C represents the absorbance with tyrosinase but no sample; C0 represents the absorbance without tyrosinase and sample.

[1] = cited from earlier work
[2] = tested on: LPS-stimulated RAW 264.7 cells; test: NO production by LPS-stimulated RAW 264.7 cells (Griess); assay type: cell-based; conditions: Mus musculus, RAW264.7, read-out: IC50 for the inhibition of NO production
Description: Four new compounds 1–4 were tested for potential anti-inflammatory activity by measuring the inhibition of the nitric oxide (NO) production. […] The IC50 values for the inhibition of NO production by compounds 1–4 are all > 50 μM. […] From the experimental results and literature data, the flavonoids in the title plant have better anti-inflammatory activity than ellagitannins, it may be the active ingredient corresponding to the anti-inflammatory effect of this plant.
The RAW 264.7 cells were cultivated in DMEM supplemented with 10% FBS at 37 °C in a humidified atmosphere of 5% CO2 for 24 h. Cells in 24-well plate (5 × 10^4 cells/well) were treated with 200 ng/mL LPS and the test compounds. After 22 h, the media were collected, and the level of nitrite was measured using the Griess Reagent System (Promega, Madison, WI, USA).

tyrosinase inhibitory activity (in words) (mushroom tyrosinase)	IC50 (mushroom tyrosinase) [µM]	IC50 [2] [µM]	SMILES	anti-inflammatory activity (in words) [1]
no significant	> 2000		C[C@@H]1O[C@@H](Oc2c(-c3ccc(O)cc3)oc3cc(O)cc(O)c3c2=O)[C@H](O)[C@H](O)[C@H]1O [Compound 8, kaempferol-3-rhamnoside]	have no anti-inflammatory activity
	125 ± 3.12	> 50	COc1cc(C(=O)OC[C@H]2O[C@@H](OC(=O)c3cc(O)c(O)c(O)c3)[C@@H]3OC(=O)c4cc(O)c(O)c(O)c4-c4c(cc(O)c(O)c4O)C(=O)O[C@H]3[C@@H]2O)ccc1O [Compound 4, 1-O-galloyl-6-O-vanilloyl-2,3-O-(S)-hexahydroxydiphenoyl-β-D-glucose]	
	1900 ± 38.2		O=c1c(O)c(-c2ccc(O)cc2)oc2cc(O)cc(O)c12 [Compound 7, kaempferol]	have anti-inflammatory activity
	241 ± 6.23	> 50	COc1c(O)cc(C(=O)O[C@@H]2O[C@H](COC(=O)c3cc(O)c(O)c(O)c3)[C@@H](O)[C@@H]3OC(=O)c4cc(O)c(O)c(O)c4-c4c(cc(O)c(O)c4O)C(=O)O[C@@H]23)cc1O [Compound 2, 1-O-(4-methoxygalloyl)-6-O-galloyl-2,3-O-(S)-hexahydroxydiphenoyl-β-D-glucose]	
	154 ± 3.63	> 50	COc1cc(C(=O)OC[C@H]2O[C@@H](OC(=O)c3cc(O)c(O)c(O)c3)[C@@H]3OC(=O)c4cc(O)c(O)c(O)c4-c4c(cc(O)c(O)c4O)C(=O)O[C@H]3[C@@H]2O)cc(O)c1O [Compound 3, 1-O-galloyl-6-O-(3-methoxygalloyl)-2,3-O-(S)-hexahydroxydiphenoyl-β-D-glucose]	
weak	426 ± 11.3	> 50	CCOC(=O)C1(O)C(=O)C2=C3C(=O)OC(C2OCC)C2OC(=O)c4c(c(O)c(O)c(O)c4C31)-c1c(cc(O)c(O)c1O)C(=O)OC1COC(=O)c3cc(O)c(O)c(O)c3-c3c(cc(O)c(O)c3O)C(=O)OC12 (stereo not drawn) [Compound 1, Whiskey tannin C]	
significant			O=c1c(O)c(-c2ccc(O)c(O)c2)oc2cc(O)cc(O)c12 [Compound 10, quercetin]	have anti-inflammatory activity
no significant	905 ± 20.4		C[C@@H]1O[C@@H](Oc2c(-c3cc(O)c(O)c(O)c3)oc3cc(O)cc(O)c3c2=O)[C@H](O)[C@H](O)[C@H]1O [Compound 12, myricetin-3-O-α-L-rhamnopyranoside]	have anti-inflammatory activity

SMILES	tyrosinase inhibitory activity (in words) (mushroom tyrosinase)	IC50 (mushroom tyrosinase) [µM]	IC50 [2] [µM]	anti-inflammatory activity (in words) [1]
C[C@@H]1O[C@@H](Oc2c(-c3ccc(O)c(O)c3)oc3cc(O)cc(O)c3c2=O)[C@H](O)[C@H](O)[C@H]1O [Compound 11, quercetin-3-O-α-L-rhamnoside]		98.2 ± 2.31		have no anti-inflammatory activity
